# Experimental data from patent US20240366526A1, “COMPOSITIONS AND METHODS FOR MAINTAINING OR ENHANCING MICROBIAL BALANCE OF THE SKIN AND MUCOSA” (Reckitt Benckiser Health Limited, priority 2023, published 2024).
# Experiments:
# Assay in all cases: MIC determination (EUCAST / ISO 20776 microdilution)
# Type in all cases: cell-based
# [1] = system: Gardnerella vaginalis LF1; conditions: clinical vaginal isolate; 37° C., microaerophilic, 24 and 48 h; single substance
# Description: The strains used were Lactobacillus crispatus LF6 and Lactobacillus gasseri LF7), one strain of Gardnerella vaginalis LF1 and one strain of Candida albicans LF, that correspond to clinical isolates collected from women vaginal cavity. The antimicrobial activity method was based on the current standards described by EUCAST (European Committee on Antimicrobial Susceptibility Testing) and ISO 20776-1 (2006) and ISO 20776-2-(2007) for determining the minimum inhibitory concentration (MIC). Terpinen-4-ol and Carvacrol were emulsified with DMSO (up to 1% (v/v)) in culture medium to obtain a concentration corresponding to 2× higher than the testing one. Sequential dilutions (1:2) were prepared in a sterile 96 wells plate with culture medium. […]
# In parallel, calibrated suspensions of microorganisms were prepared with a cell density of 1.0 on the McFarland scale (Lactobacillus spp. and Candida albicans) and 0.13 absorbance (Gardnerella vaginalis), corresponding to 1×10^8 CFU/mL for bacteria (Lactobacillus spp. and Gardnerella vaginalis) and 1×10^6 CFU/mL for yeast (Candida albicans). […]
# After homogenization of the working microbial suspension with dilutions of the two ingredients, the 96-well plates were incubated according to the incubation conditions suitable for each microorganism. […] After incubation, the wells were evaluated macroscopically to check for microorganism growth. […]
# [2] = system: Candida albicans LF1
# Protocol: (§1) Sequential dilutions (1:2) were prepared in a sterile 96 wells plate with culture medium. All preparations were performed in aseptic conditions. For each of the ingredients tested, 8 concentrations were tested. […] De Man, Rogosa and Sharpe Broth (MRSB) media was used for growth of Lactobacillus spp., New York City III Broth ([…]) media and Roswell Park Memorial Institute 1640 (RPMI-1640) media was used respectively to grow Gardnerella vaginalis and Candida albicans. […] After homogenization of the working microbial suspension with dilutions of the two ingredients, the 96-well plates were incubated according to the incubation conditions suitable for each microorganism. For, L. crispatus and L. gasseri, incubation was done at 37° C. for 24 and 48h in microaerophilic atmosphere. […] After incubation, the wells were evaluated macroscopically to check for microorganism growth. Turbid wells indicated the presence of microbial growth, and clear wells indicated the absence of microbial growth. The lowest concentration tested in which wells without turbidity, correspondent to the minimum inhibitory concentration (MIC). To validate the test, three negative controls (sterility control of the culture medium; study substance dilutions with culture medium; emulsifier with culture medium) and two positive controls (growth control for each microorganism using culture media and growth control for each microorganism using emulsifier with culture media) were performed.
# [3] = system: Lactobacillus gasseri LF7
# Protocol: as §1
# [4] = system: Lactobacillus crispatus LF6
# Protocol: as §1
# [5] = terpinen-4-ol 2.5 μl/ml and 5 μl/ml
SMILES,MIC for Gardenella vaginalis LF1 [1] [μl/ml],inhibition for C. albicans LF1 ([2]; carvacrol 0.31 μl/ml) [%],effect on Lactobacillus gasseri growth ([3]; carvacrol 0.31 μl/ml),effect on Lactobacillus crispatus growth ([4]; carvacrol 0.31 μl/ml),"MIC for C. albicans LF1 ([2]; clinical vaginal isolate, 32.5° C., aerophilic, 24 and 48 h, single substance) [μl/ml]","effect on Lactobacillus gasseri growth [3, 5]","effect on Lactobacillus crispatus growth [4, 5]"
"Cc1ccc(C(C)C)cc1O [Carvacrol, carvacrol]",0.31,50,unaffected,unaffected,–,–,–
CC1=CCC(O)(C(C)C)CC1 (centres unmarked) [Terpinen-4-ol],2.5,–,–,–,5,unaffected,unaffected
